Measured values taken from patent US7786310B2, “Small molecule transcriptional activation domains” (The Regents of the University of Michigan, priority 2004, dated 2010).

How the values were obtained:
[1] = tested on: HeLa nuclear extracts; details: for ability to up-regulate transcription (activity in words, compared with AD 1): Example 9 numbering (FIG. 13/14A), ATF14 as positive control, FIG. 15
[2] = tested on: transcription mediated by 4; assay: competition/squelching experiment: free activation domain added to in vitro transcription reactions containing the DNA-bound activator; format: biochemical, human; details: 1-10 μM concentration of free activation domain; FIG. 7
Experimental: In this experiment, micromolar concentrations of free activation domain are added to transcription reactions containing the DNA-bound activator and the corresponding affect on transcription levels is measured. Results with one of the activation domains (4) is shown (See, e.g., FIGS. 7-8).

Row | Molecule | ability to up-regulate transcription (activity in words, compared with AD 1) [1] | suppression of transcription mediated by 4 [2] | transcriptional activation when the activation domain is not covalently linked to methotrexate (not localized to DNA) ([1]; isoxazolidine and methotrexate hydrazide 1 added separately in the same reaction, FIG. 6)
1 | 2-(4({(6-(Amino-methylcarbaminidoylimino-methyl)-pyrazin-2-ylmethyl)-methylamino}-methyl)-benzoylamino)-4-(2-benzyl-(3RS)-(2-hydroxy-ethyl)-3-isobutylisoxazolidin-(5RS)-ylmethylene-hydrazinocarbonyl)-(S)-butyric acid [isoxazolidine 4] | indistinguishable from that of AD 1 | – | –
2 | COC(OC)C1CC(CCO)(CC(C)C)N(Cc2ccccc2)O1 (centres unmarked) [S8, 2-(2-Benzyl-5-dimethoxymethyl-3-isobutyl-isoxazolidin-3-yl)-ethanol] | – | ~50% | Little activation
3 | 2-(4({(6-(Amino-methylcarbaminidoylimino-methyl)-pyrazin-2-ylmethyl)-methylamino}-methyl)-benzoylamino)-4-(2-(2-benzyl-(5RS)-hydroxymethyl-(3RS)-isobutylisoxazolidin-3-yl)-ethylidene-hydrazinocarbonyl)-(S)-butyric acid [isoxazolidine 6] | function well as transcriptional ADs | – | –
4 | CC(C)C[C@]1(C/C=N/NC(=O)CC[C@H](NC(=O)c2ccc(N(C)Cc3cnc4nc(N)nc(N)c4n3)cc2)C(=O)O)C[C@](C)(CO)ON1CC(=O)O (racemic) [isoxazolidine 3, 2-(4({(6-(Amino-methylcarbaminidoylimino-methyl)-pyrazin-2-ylmethyl)-methylamino}-methyl)-benzoylamino)-4-{2-((5RS)-hydroxymethyl-2-(hydroxy-2-oxopropyl)-(3RS)-isobutyl-isoxazolidin-3-yl)-ethylidene-hydrazinocarbonyl}-(S)-butyric acid] | indistinguishable from that of AD 1 | – | –
